From patent publication US7345073B2, “Method for treating cryptorchidism” (Hormos Medical Ltd., priority 2003, dated 2008)

Experiments:
[1] = tested on: wild type FVB/N mice; assay: Relative testes weights (testes weight/animal weight), wild type mice; format: in vivo, mouse; conditions: n = 7, finrozole 10 mg/kg p.o. daily for six weeks, SD 0.0003
Method: (§1) The aromatase inhibitor finrozole {MPV-2213ad (10695U, without purification, Hormos Medical Ltd.} was the test compound. Vehicle (CMC-solution) was used as control substance. CMC-solution was prepared as follows: 0.25 g carboxylmethylcellulosa (CMC) (lot. 939512, Tamro OYJ) was weighed and solubilized in 50 ml of deionized (Milli-Q) water. The solution was prepared once a week and stored at +4° C. The dose level of finrozole 10 mg/kg dose level was used. The vehicle-test/control-solution, which was given to the test animals, was prepared daily as follows: the appropriate amount of finrozole was weighed in a transparent glass mortar. A few drops of vehicle were added and the mixture was thoroughly mixed. After this ⅓ of the final volume of vehicle was added to the mortar and placed into an ultrasonic incubator for five minutes. This procedure was done total of three times to reach the final volume.
(§2) In the experiment there was […] different kind of groups of male mice, ten animals in each group. One control group (wild type FVB/N) received vehicle, as well as the other control (021 line) group. The last groups were treated with finrozole (10 mg/kg).
(§3) The dosing (4 ml solution/kg) of the animals took place p.o. daily for six weeks. On Saturdays, however, double dose of the test compounds was given to animals. On sundays there was no treatment.
(§4) The trial was conducted in total of 39 mice. […]

[2] = tested on: Aromatase over expressing mice AROM+ (line 021); assay: Relative testes weights (testes weight/animal weight), AROM+ mice; format: in vivo, mouse; conditions: AROM+ (021) mice, n = 10; finrozole 10 mg/kg p.o. daily for six weeks; SD 0.0003
Method: as §1
(§5) Aromatase over expressing mice AROM^+ were used in this study. The mice were maintained under standard laboratory conditions at 12:12 light/dark cycle, and received free access to soyfree pelleted food (SDS, Witham, Essex, UK), and tap water.
We have generated a transgenic mouse model bearing the human ubiquitin C promoter/human P450 aromatase fusion gene (AROM^+). […]

[3] = tested on: Aromatase over expressing mice AROM+ (line 021); assay: Testes descent (palpation and opening the animal) after six weeks of p.o. treatment, AROM+ mice; format: in vivo, mouse; conditions: AROM+ (021) male mice, ten mice; finrozole 10 mg/kg p.o. daily for six weeks
Method: as §1, §5
We have generated a transgenic mouse model bearing the human ubiquitin C promoter/human P450 aromatase fusion gene (AROM^+). […] The AROM^+ males present with a multitude of severe structural and functional abnormalities of the reproductive system, such as cryptochidism, dysmorphic semiferous tubules and disrupted spermatogenesis. The males also have small or rudimentary accessory sex glands with abnormal morphology, a prominent prostatic utricle with squamous epithelial metaplasia, and abnormal morphology of ejaculatory duct and vas deferens. In addition, the abdominal wall muscle layer is thin, and the adrenals are enlarged with cortical hyperplasia. […] Some of the disorders in reproductive system, furthenmore, can be explained by the fact that the AROM^+ males are hypo-androgenic. […]

[4] = tested on: wild type FVB/N mice; assay: Testes descent (palpation and opening the animal) after six weeks of p.o. treatment, wild type mice; format: in vivo, mouse; conditions: wild type FVB/N male mice, nine mice; finrozole 10 mg/kg p.o. daily for six weeks
Method: as §1, §2, §3, §4

[5] = tested on: cryptorchidism (non-descended testes); conditions: according to one study; cited from earlier work

| Molecule | Relative testes weights (testes weight/animal weight) [1] | Relative testes weights (testes weight/animal weight) [2] | Number of descended testes [3] | Number of partly descended testes [3] | Number of undescended testes [3] | Number of descended testes [4] | efficacy in cases of true non-descended testes [5] |
| --- | --- | --- | --- | --- | --- | --- | --- |
| N#Cc1ccc(C(C(O)Cc2ccc(F)cc2)n2cncn2)cc1 (single isomer, unassigned) [finrozole, 1-[1-(4-cyanophenyl)-3-(4-fluorophenyl)-2-hydroxypropyl]-1,2,4-triazole, diasteroisomer a+d] | 0.0027 | 0.0033 | 17 | 2 | 1 | 18 | – |
| LHRH: lutenizing-hormone releasing hormone, hormonal treatment of cryptorchidism (QHWSYGLRPG; Gonadoliberin-1; UniProt P01148 24-33, looked up) | – | – | – | – | – | – | ineffective |
